From patent US9051295B2, “1-substituted indazole derivative” (Dainippon Sumitomo Pharma Co., Ltd., priority 2012, dated 2015)

Columns and labels:
Slc: ddY mice = assay: Novel object recognition test in mice (mORT); assay type: in vivo; details: at 0.3 mg/kg, 1.0 mg/kg or 3 mg/kg
Method: Evaluation of Cognitive Function with Mice in Novel Object Recognition Test (Hereinafter, Referred to as “mORT”)
Slc: ddY mice (25 g to 30 g, male, Japan SLC) can be used in the novel object recognition test wherein the interval between the 1st trial (training) and the 2nd trial (test) correlates with the memory loss for the objects used in the 1st trial, and a significant memory-loss is observed when the 2nd trial is performed 24 hours after the 1st trial. According to the test mechanism, the present compounds were administered prior to the 1st trial, and the enhancement effect on memory in the 2nd trial was evaluated.

human α7 nAChR = target: T1, human α7 nAChR (Homo sapiens, UniProt P36544); assay: Evaluation of PAM activity with human α7 nACh receptor stably expressing cells (aequorin luminescence, FDSS7000, ACh EC20); assay type: cell-based; details: for α7PAM (%) @ 10 μmol/L: test compound 10 μmol/L, ACh at EC20, ratio of RLU (Max-Min) of test-compound wells to control wells; for PAM activity for α7 nAChR (in words): statement on Table 8 data
T1 construct: expressed in transfected cells; host or cells: GH4C1 cells (rat pituitary, ATCC CCL-82.2)
T1 sequence (P36544 23-502): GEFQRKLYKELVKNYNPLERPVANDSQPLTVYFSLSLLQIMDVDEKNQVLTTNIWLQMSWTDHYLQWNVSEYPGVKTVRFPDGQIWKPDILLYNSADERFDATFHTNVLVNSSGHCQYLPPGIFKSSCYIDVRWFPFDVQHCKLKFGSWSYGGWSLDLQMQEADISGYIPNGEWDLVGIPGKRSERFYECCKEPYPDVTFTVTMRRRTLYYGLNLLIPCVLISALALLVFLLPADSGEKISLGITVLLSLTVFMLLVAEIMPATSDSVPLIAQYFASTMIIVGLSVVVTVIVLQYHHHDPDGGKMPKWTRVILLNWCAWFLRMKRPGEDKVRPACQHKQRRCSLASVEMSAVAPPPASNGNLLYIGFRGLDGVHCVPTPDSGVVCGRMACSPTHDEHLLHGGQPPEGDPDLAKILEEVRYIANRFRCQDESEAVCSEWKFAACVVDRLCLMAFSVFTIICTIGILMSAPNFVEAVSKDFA
Text: Evaluation of PAM Activity with Human α7 nACh Receptor Stably Expressing Cells
(1) Human α7 nAChR Stably Expressing Cells
Human α7 nAChR stably expressing cells were generated and cultured. In detail, GH4C1 cells derived from rat pituitary (cat#CCL-82.2, ATCC, USA) were used as a host cell. PcDNA3.1Zeo vector containing a nucleotide sequence encoding a protein GenBank BAC81731 and pcDNA3.1 vector containing human α7 nAChR gene (cat#V790-20, invitrogen, Carlsbad, Calif., USA) were transfected to the cells to give aequorins and human α7 nAChR stably expressing cells respectively. The aequorins and human α7 nAChR stably expressing cells were screened with Zeocin (cat#R25001, invitrogen, Carlsbad, Calif., USA) and Geneticin (cat#10131-027, invitrogen, Carlsbad, Calif., USA) respectively.
The cells were cultured in F-10 Nutrient Mixture (Ham) medium (cat#11550-043, invitrogen, Carlsbad, Calif., USA) containing 2.5% fetal bovine serum (cat#2917354, ICN Biomedicals, Inc, USA), 15% inactivated horse serum (cat#26050-088, invitrogen, Carlsbad, Calif., USA), 1 μg/mL Geneticin, and 5 μg/mL Puromycin (cat#14861-84, invitrogen, Carlsbad, Calif., USA), in a Collagen Type 1-coated dish (cat#4030-010, iwaki, Tokyo, Japan). During the culture, the medium was replaced with fresh medium in every 2 to 3 days, and the cells were treated with TrypLE Express (cat#45604-021, invitrogen, Carlsbad, Calif., USA) to collect them in every 7 days. Thus, the cells were subcultured.
7 Days after subculturing, the cells were treated with TrypLE Express to collect them when they were about 80% confluent. The cells were suspended in a reaction medium containing Hanks (cat#14065-056, invitrogen, Carlsbad, Calif., USA)/20 mmol/L Hepes (cat#15630-080, invitrogen, Carlsbad, Calif., USA), Buffer (pH 7.4), F-10 Nutrient Mixture (Ham), and 0.1 mg/mL Geneticin, and the suspension was seeded in a 384-well plate (cat#781090, Greiner, Germany) at 20000 cells/25 μL per well.
On the next day after seeding, Viviren (cat#E649X, Promega, Madison, Wis., USA) was added to the medium so that the final concentration could be 4 μmol/L (15 μL/well). The plates were centrifuged and then placed in the dark for 4 hours at room temperature.
(2) Preparation of the Test Samples
Each of the test compounds was dissolved in DMSO to prepare each test sample at a concentration of 1000-fold the final concentration. To the solution was added Hanks/20 mM HEPES/0.2% BSA (cat#A3803, Sigma, St. Louis, Mo., USA), and the concentration was adjusted to 6-fold the final concentration.
(3) Evaluation of PAM Activity
FDSS7000 (Hamamatsu Photonics) was used to detect the luminescence signal evoked by α7 nAChR stimulation. The cells and a luminescent substrate were put on a plate, and the test sample was added thereto. […] After the addition of ACh, the luminescence signal (the central wavelength: 465 nm) was measured for 138 seconds to calculate RLU (Max-Min). The ratio of the RLU (Max-Min) of the test-compound-containing wells to that of the control wells was defined as PAM activity.

SMILES | efficacy at higher doses (Slc: ddY mice) | α7PAM (%) @ 10 μmol/L (human α7 nAChR) [%] | PAM activity for α7 nAChR (in words) (human α7 nAChR)
CO[C@H]1CC[C@H](NC(=O)N2CCC(n3ncc4cc(C)ccc43)CC2)CC1 [Example 1, N-(trans-4-methoxycyclohexyl)-4-(5-methyl-1H-indazol-1-yl)piperidine-1-carboxamide] | the efficacy did not decrease | 1209 | 
CO[C@H]1CC[C@H](NC(=O)N2CCC(n3ncc4cc(C5CC5)ccc43)CC2)CC1 [Example 74, 4-(5-cyclopropyl-1H-indazol-1-yl)-N-(trans-4-methoxycyclohexyl)piperidine-1-carboxamide] | the efficacy did not decrease | 1226 | 
COc1ccc2c(cnn2C2CCN(C(=O)NC3CCC(F)(F)CC3)CC2)c1 [Example 41, N-(4,4-difluorocyclohexyl)-4-(5-methoxy-1H-indazol-1-yl)piperidine-1-carboxamide] |  | 3749 | stronger PAM activity than others
O=C(NC1CCOCC1)N1CCC(n2ncc3c(OC(F)(F)F)cccc32)CC1 [Example 304] |  | 380 | 
O=C(NC1CCOCC1)N1CCC(n2ncc3cc(C(F)(F)F)ccc32)CC1 [Example 297] |  | 340 | 
CCc1ccc2c(cnn2[C@H]2CC[C@@H](NC(=O)[C@H]3CC[C@H](OC)CC3)CC2)c1 [Example 122] |  | 410 | 
CCc1ccc2c(cnn2C2CCN(C(=O)NC3CCCC3)CC2)c1 [Example 20] |  |  | stronger PAM activity than others
CCOc1ccc2c(cnn2C2CCN(C(=O)NC3CCCC3)CC2)c1 [Example 17] |  |  | stronger PAM activity than others
CCc1ccc2c(cnn2C2CCN(C(=O)NC3CCCOC3)CC2)c1 (stereo not drawn) [Example 22, 4-(5-ethyl-1H-indazol-1-yl)-N-(tetrahydro-2H-pyran-3-yl)piperidine-1-carboxamide] |  | 1425 | 
CC(C)Oc1ccc2c(cnn2C2CCN(C(=O)NC3CCCCC3)CC2)c1 [Example 48, N-cyclohexyl-4-(5-isopropoxy-1H-indazol-1-yl)piperidine-1-carboxamide] |  | 1202 | 
CCOc1ccc2c(cnn2C2CCN(C(=O)NC3CCCCC3)CC2)c1 [Example 18, N-cyclohexyl-4-(5-ethoxy-1H-indazol-1-yl)piperidine-1-carboxamide] |  | 6779 | stronger PAM activity than others
